# Assay results taken from patent US12053452B2 (priority 2021, dated 2024).
# Like-named read-outs stand apart in the source and are kept apart here.
# Tests used:
# BTBR mice = assay: Sociability test, BTBR; format: in vivo; conditions: 3.0 mg/kg IP
# Method: This assay was conducted in adult male C57 and BTBR mice (n=6 per group) in a dedicated conditioning room where ambient light, sound, and human contact were tightly controlled. Social preference chambers consist of two polycarbonate boxes (13.5 cm wide×22.5 cm tall×31.0 cm deep), floored with rough-textured black ABS plastic, and connected to one another by a 1.25″ PVC T-junction. An infrared photobeam emitter/detector array is mounted at each intersection of the T-junction and each preference compartment, and as a mouse traversed the apparatus, it would break the photobeam upon entry to or exit from each preference compartment. Beam breaks started or stopped a counter on an interfaced computer, allowing automated collection of time spent in each compartment. At the end of each test, data were reported as time (in seconds) spent in each compartment, the number of entries into each compartment, and the average time spent in each compartment following an entry. Social preference tests were conducted in an iterative manner, with each test subject completing four distinct phases as described below. Between testing sessions, chambers were sanitized by wiping the insides with a disinfectant product provided by the UAMS Department of Laboratory Animal Medicine. […]
# [1] = phase 3 trials, MDMA-assisted psychotherapy; cited from earlier work
# [2] = autistic adults, MDMA-assisted psychotherapy; cited from earlier work
# [3] = human urine, after racemic MDMA; cited from earlier work
# [4] = rats, cited from earlier work; for Cmax (maximum MDMA concentration): 2 mg/kg; for Cmax: 10 mg/kg
compound,measurement,setting,value
"CN[C@@H](C)Cc1ccc2c(c1)OCO2 [S(+)-MDMA, (2S)-1-(1,3-benzodioxol-5-yl)-N-methylpropan-2-amine]",sociability (time spent with the stranger mouse vs dummy),BTBR mice,did not alter sociability
"CNC(C)Cc1ccc2c(c1)OCO2 (racemic) [racemic MDMA, 1-(1,3-benzodioxol-5-yl)-N-methylpropan-2-amine]",efficacy to treat Post Traumatic Stress Disorder (PTSD),[1],demonstrated efficacy
same,social anxiety symptoms,[2],rapid and durable improvement in social anxiety symptoms
same,enantiomer with higher Cmax,[3],Higher R-enantiomer Cmax
same,Cmax (maximum MDMA concentration),[4]; intraperitoneal,210 ng/mL
same,Cmax (maximum MDMA concentration),[4]; oral,46 ng/mL
same,Cmax (maximum MDMA concentration),[4]; subcutaneous,196 ng/mL
same,Cmax,[4]; intraperitoneal,2257 ng/mL
same,Cmax,[4]; oral,966 ng/mL
same,Cmax,[4]; subcutaneous,1130 ng/mL
